# Test results reported in US20250122160A1, “PROTEIN TYROSINE PHOSPHATASE INHIBITORS AND METHODS OF USE THEREOF” (Calico Life Sciences LLC, priority 0001, published 2025).
# What was measured:
# [1] = molecular target: T1, His tagged PTPN2 (TC45) protein (Homo sapiens, UniProt P17706); test: Mobility shift assay (MSA) to determine potency of PTPN2 inhibitors; type: biochemical; conditions: 0.5 nM enzyme, 2 μM substrate
# T1 construct: made in house
# T1 sequence (P17706 with tags, fused parts or gaps isoform P17706-2): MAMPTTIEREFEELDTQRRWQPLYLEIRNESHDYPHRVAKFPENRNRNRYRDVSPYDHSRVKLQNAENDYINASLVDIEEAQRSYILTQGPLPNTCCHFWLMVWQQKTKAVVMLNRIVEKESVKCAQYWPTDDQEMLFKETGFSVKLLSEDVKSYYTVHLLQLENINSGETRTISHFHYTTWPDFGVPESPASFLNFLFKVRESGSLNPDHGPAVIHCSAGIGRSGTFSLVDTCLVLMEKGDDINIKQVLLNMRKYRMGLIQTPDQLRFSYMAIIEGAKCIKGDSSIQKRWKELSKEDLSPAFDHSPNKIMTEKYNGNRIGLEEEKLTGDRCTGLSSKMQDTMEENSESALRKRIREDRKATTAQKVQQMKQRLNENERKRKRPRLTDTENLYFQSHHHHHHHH
# Method: Compound activity was determined using in house His tagged PTPN2 (TC45) protein (SEQ ID NO: 1) in an in vitro enzymatic reaction. The enzymatic assay used to determine activity was a mobility shift assay using a LabChip EZ Reader by Caliper Life Sciences. The enzymatic reaction was carried out in assay buffer (50 mM HEPES pH 7.5, 1 mM EGTA, 10 mM EDTA, 0.01% Tween® 20, and 2 mM DTT). The compounds were dispensed on a white 384 well ProxiPlate™ (PerkinElmer Catalog #6008289) plate using the Labcyte Echo at varying concentrations (12 point, 1:3 dilution). The enzyme (at 0.5 nM) was incubated with compound for 10 minutes at room temperature. Then the substrate (phosphorylated insulin receptor probe sequence: ((OG488)-(NH—CH2—CH2—O—CH2—CH2—O—CH2—CO)-T-R-D-I-(PY)-E-T-D-Y—Y—R—K—K—NH2) (SEQ ID NO: 2) was added at 2 μM to the plates and incubated for another 10 minutes at room temperature. Finally, a quench solution (water and 4-bromo-3-(2-oxo-2-propoxyethoxy)-5-(3-{[1-(phenylmethanesulfonyl)piperidin-4-yl]amino}phenyl)thiophene-2-carboxylic acid) was added to the plates, which were then run on the EZ Reader (excitation 488 nm, emission 530 nm) to measure % conversion (the amount of phosphorylated substrate which was de-phosphorylated by PTPN2). […] The % inhibition was then used to calculate the IC50 values.
# [2] = molecular target: T2, His tagged full-length PTPN1 protein (Homo sapiens, UniProt P18031); test: Mobility shift assay (MSA) to determine potency of PTPN1 inhibitors; type: biochemical; conditions: 0.5 nM enzyme, 2 μM substrate
# T2 construct: made in house
# T2 sequence (P18031 with tags, fused parts or gaps): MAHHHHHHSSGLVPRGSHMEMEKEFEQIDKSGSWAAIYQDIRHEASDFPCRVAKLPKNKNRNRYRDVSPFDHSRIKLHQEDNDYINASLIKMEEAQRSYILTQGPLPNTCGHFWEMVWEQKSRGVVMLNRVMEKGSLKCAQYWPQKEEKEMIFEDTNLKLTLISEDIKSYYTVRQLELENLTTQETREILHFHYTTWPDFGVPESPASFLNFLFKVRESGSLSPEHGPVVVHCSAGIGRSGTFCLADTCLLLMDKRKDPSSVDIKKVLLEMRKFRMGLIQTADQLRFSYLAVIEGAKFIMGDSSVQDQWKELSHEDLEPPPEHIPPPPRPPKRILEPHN
# Method: Compound activity was determined using in house His tagged full-length PTPN1 protein (SEQ ID NO: 3) in an in vitro enzymatic reaction. The enzymatic assay used to determine activity is a mobility shift assay using a LabChip EZ Reader by Caliper Life Sciences. The enzymatic reaction was carried out in assay buffer (50 mM HEPES pH 7.5, 1 mM EGTA, 10 mM EDTA. 0.01% Tween® 20, and 2 mM DTT). The compounds were dispensed on a white 384 well ProxiPlate™ (PerkinElmer Cat #6008289) plate using a Labcyte Echo® liquid handler at varying concentrations (12 point, 1:3 dilution). The enzyme (at 0.5 nM) was incubated with compound for 10 minutes at room temperature. Then the substrate (phosphorylated insulin receptor probe sequence: ((OG488)-(NH—CH2—CH2—O—CH2—CH2—O—CH2—CO)-T-R-D-I-(PY)-E-T-D-Y—Y—R—K—K—NH2) (SEQ ID NO: 2) was added at 2 μM to the plates and incubated for another 10 minutes at room temperature. Finally, a quench solution (water and 4-bromo-3-(2-oxo-2-propoxyethoxy)-5-(3-{[1-(phenylmethanesulfonyl)piperidin-4-yl]amino}phenyl)thiophene-2-carboxylic acid) was added to the plates, which were then run on the EZ Reader (excitation 488 nm, emission 530 nm) to measure % conversion (the amount of phosphorylated substrate which was de-phosphorylated by PTPN1). […] The % inhibition was then used to calculate the IC50 values.
SMILES,IC50 [1],IC50 [2]
"CC(C)CCN[C@@H]1CCc2cc(O)c(N3CC(=O)NS3(=O)=O)c(F)c2[C@H]1O [Compound 406, 5-{(7R,8R)-1-fluoro-3,8-dihydroxy-7-[(3-methylbutyl)amino]-5,6,7,8-tetrahydronaphthalen-2-yl}-1λ^6,2,5-thiadiazolidine-1,1,3-trione]",10 to 100 nM,> 100 nM
"[2H]C1([2H])Cc2cc(O)c(N3CC(=O)NS3(=O)=O)c(F)c2C([2H])([2H])[C@]1([2H])NCCC(C)C (single isomer, unassigned) [Compound 371]",< 1 nM,1 to 10 nM
"Cc1cc(CN[C@@H]2CCc3cc(O)c(N4CC(=O)NS4(=O)=O)c(F)c3C2)no1 [Compound 351, 5-[(7R)-1-fluoro-3-hydroxy-7-{[(5-methyl-1,2-oxazol-3-yl)methyl]amino}-5,6,7,8-tetrahydronaphthalen-2-yl]-1λ^6,2,5-thiadiazolidine-1,1,3-trione]",10 to 100 nM,10 to 100 nM
Cn1nccc1CNC(=O)N1CCc2cc(O)c(N3CC(=O)NS3(=O)=O)c(F)c2C1 [Compound 272],10 to 100 nM,10 to 100 nM
O=C1CN(c2c(O)cc3c(c2F)CN(C(=O)NCC2COC2)CC3)S(=O)(=O)N1 [Compound 283],10 to 100 nM,> 100 nM
O=C1CN(c2c(O)cc3c(c2F)CN(CCCN2CCOCC2)CC3)S(=O)(=O)N1 [Compound 229],10 to 100 nM,10 to 100 nM
O=C1CN(c2c(O)cc3c(c2F)CN(C(=O)NCCc2ccccc2)CC3)S(=O)(=O)N1 [Compound 284],10 to 100 nM,10 to 100 nM
O=C1CN(c2c(O)cc3c(c2F)CN(CCN2CCNCC2)CC3)S(=O)(=O)N1 [Compound 247],10 to 100 nM,10 to 100 nM
O=C1CN(c2c(O)cc3c(c2F)CN(CC2CNC2)CC3)S(=O)(=O)N1 [Compound 165],10 to 100 nM,10 to 100 nM
Cc1noc(C)c1CCN1CCc2cc(O)c(N3CC(=O)NS3(=O)=O)c(F)c2C1 [Compound 211],1 to 10 nM,1 to 10 nM
O=C1CN(c2c(O)cc3c(c2F)CN(CCCC2CC2)CC3)S(=O)(=O)N1 [Compound 159],10 to 100 nM,10 to 100 nM
CC(C)OCCN1CCc2cc(O)c(N3CC(=O)NS3(=O)=O)c(F)c2C1 [Compound 233],> 100 nM,10 to 100 nM
CCCCCN1CCc2cc(O)c(N3CC(=O)NS3(=O)=O)c(F)c2C1 [Compound 298],10 to 100 nM,10 to 100 nM
CC(C)(C)OC(=O)N1CCc2cc(O)c(N3CC(=O)NS3(=O)=O)c(F)c2C1 [Compound 221],10 to 100 nM,1 to 10 nM
"CC(C)CCN[C@H]1Cc2c(cc(O)c(N3CC(=O)NS3(=O)=O)c2F)C[C@H]1O [Compound 393, 5-{(6R,7S)-1-fluoro-3,6-dihydroxy-7-[(3-methylbutyl)amino]-5,6,7,8-tetrahydronaphthalen-2-yl}-1λ^6,2,5-thiadiazolidine-1,1,3-trione]",1 to 10 nM,1 to 10 nM
"C[C@@H]1C[C@@H](NC(=O)OC(C)(C)C)Cc2c1cc(O)c(N1CC(=O)NS1(=O)=O)c2F [Compound 395, tert-butyl [(2R,4R)-8-fluoro-6-hydroxy-4-methyl-7-(1,1,4-trioxo-1λ^6,2,5-thiadiazolidin-2-yl)-1,2,3,4-tetrahydronaphthalen-2-yl]carbamate]",> 100 nM,> 100 nM
"O=C1CN(c2c(O)cc3c(c2F)CC(CNCC2CC2)CC3)S(=O)(=O)N1 (stereo not drawn) [Compound 399, 5-(7-{[(cyclopropylmethyl)amino]methyl}-1-fluoro-3-hydroxy-5,6,7,8-tetrahydronaphthalen-2-yl)-1λ^6,2,5-thiadiazolidine-1,1,3-trione]",10 to 100 nM,10 to 100 nM
COCCNC(=O)N1CCc2cc(O)c(N3CC(=O)NS3(=O)=O)c(F)c2C1 [Compound 282],10 to 100 nM,10 to 100 nM
O=C1CN(c2c(O)cc3c(c2F)C[C@H](NCCC2CCC2)CC3)S(=O)(=O)N1 [Compound 201],< 1 nM,< 1 nM
Cn1cc(CCN2CCc3cc(O)c(N4CC(=O)NS4(=O)=O)c(F)c3C2)cn1 [Compound 252],> 100 nM,> 100 nM
O=C1CN(c2c(O)cc3c(c2F)CN(C(=O)NCC2CCCCC2)CC3)S(=O)(=O)N1 [Compound 321],1 to 10 nM,1 to 10 nM
"NC[C@@H]1Cc2cc(O)c(N3CC(=O)NS3(=O)=O)c(F)c2C1 (single isomer, unassigned) [Compound 408]",1 to 10 nM,1 to 10 nM
CC(C)CCN1CCc2cc(O)c(N3CC(=O)NS3(=O)=O)c(F)c2C1 [Compound 220],10 to 100 nM,10 to 100 nM
"O=C1CN(c2c(O)cc3c(c2F)C[C@H](NCc2cccnn2)CC3)S(=O)(=O)N1 [Compound 349, 5-[(7R)-1-fluoro-3-hydroxy-7-{[(pyridazin-3-yl)methyl]amino}-5,6,7,8-tetrahydronaphthalen-2-yl]-1λ^6,2,5-thiadiazolidine-1,1,3-trione]",10 to 100 nM,10 to 100 nM
O=C1CN(c2c(O)cc3c(c2F)CN(CC2CCNCC2)CC3)S(=O)(=O)N1 [Compound 228],> 100 nM,10 to 100 nM
"Cn1cncc1CN[C@@H]1CCc2cc(O)c(N3CC(=O)NS3(=O)=O)c(F)c2C1 [Compound 357, 5-[(7R)-1-fluoro-3-hydroxy-7-{[(1-methyl-1H-imidazol-5-yl)methyl]amino}-5,6,7,8-tetrahydronaphthalen-2-yl]-1λ^6,2,5-thiadiazolidine-1,1,3-trione]",10 to 100 nM,10 to 100 nM
"COCCCN[C@@H]1CCc2cc(O)c(N3CC(=O)NS3(=O)=O)c(F)c2C1 [Compound 363, 5-{(7R)-1-fluoro-3-hydroxy-7-[(3-methoxypropyl)amino]-5,6,7,8-tetrahydronaphthalen-2-yl}-1λ^6,2,5-thiadiazolidine-1,1,3-trione]",1 to 10 nM,10 to 100 nM
"CC(C)CCN[C@@H]1CCc2c(F)c(O)c(N3CC(=O)NS3(=O)=O)c(F)c2C1 [Compound 331, 5-{(7R)-1,4-difluoro-3-hydroxy-7-[(3-methylbutyl)amino]-5,6,7,8-tetrahydronaphthalen-2-yl}-1λ^6,2,5-thiadiazolidine-1,1,3-trione]",1 to 10 nM,1 to 10 nM
"NC[C@H]1CCc2cc(O)c(N3CC(=O)NS3(=O)=O)c(F)c2C1 [Compound 404, 5-[(7S)-7-(aminomethyl)-1-fluoro-3-hydroxy-5,6,7,8-tetrahydronaphthalen-2-yl]-1λ^6,2,5-thiadiazolidine-1,1,3-trione]",10 to 100 nM,10 to 100 nM
"O=C1CN(c2c(O)cc3c(c2F)C[C@H](NCC2C4CCCC42)CO3)S(=O)(=O)N1 (mixture of isomers) [Compound 383, 5-[(3S)-3-({[(1RS,5SR)-bicyclo[3.1.0]hexan-6-yl]methyl}amino)-5-fluoro-7-hydroxy-3,4-dihydro-2H-1-benzopyran-6-yl]-1λ^6,2,5-thiadiazolidine-1,1,3-trione]",10 to 100 nM,10 to 100 nM
